{"source": "ChEMBL document CHEMBL4507295", "about": "(2021)", "key": {"[1]": {"target": "Somatostatin receptor type 3 (Homo sapiens) (UniProt P32745)", "experiment": "Somatostatin sst3 Eurofins-Panlabs radioligand binding assay", "details": "Compound concentration 10.0 uM; call rule not given here"}, "[2]": {"target": "Muscarinic acetylcholine receptor M2 (Homo sapiens) (UniProt P08172)", "sequence (P08172 whole entry)": "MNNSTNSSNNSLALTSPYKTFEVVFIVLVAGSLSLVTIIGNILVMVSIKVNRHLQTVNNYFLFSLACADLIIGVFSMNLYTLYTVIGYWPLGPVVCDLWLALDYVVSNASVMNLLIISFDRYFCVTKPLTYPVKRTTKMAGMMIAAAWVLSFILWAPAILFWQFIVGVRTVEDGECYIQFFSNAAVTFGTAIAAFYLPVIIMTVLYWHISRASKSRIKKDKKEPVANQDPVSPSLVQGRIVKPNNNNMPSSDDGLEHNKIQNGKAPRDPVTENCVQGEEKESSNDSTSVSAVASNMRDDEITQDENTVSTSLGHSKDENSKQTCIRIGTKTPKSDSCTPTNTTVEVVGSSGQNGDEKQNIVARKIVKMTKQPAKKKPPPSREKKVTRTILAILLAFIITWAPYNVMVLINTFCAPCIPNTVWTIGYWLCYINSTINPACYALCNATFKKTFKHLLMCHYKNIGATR", "details": "Compound concentration 10.0 uM"}, "[3]": {"target": "Inositol 1,4,5-trisphosphate-gated calcium channel ITPR1 (Homo sapiens) (UniProt Q14643)", "experiment": "Inositol Trisphosphate IP3 Eurofins-Panlabs radioligand binding assay", "details": "Rattus norvegicus; Compound concentration 10.0 uM"}, "[4]": {"target": "Synaptic vesicular amine transporter (Homo sapiens) (UniProt Q05940)", "sequence (Q05940 whole entry)": "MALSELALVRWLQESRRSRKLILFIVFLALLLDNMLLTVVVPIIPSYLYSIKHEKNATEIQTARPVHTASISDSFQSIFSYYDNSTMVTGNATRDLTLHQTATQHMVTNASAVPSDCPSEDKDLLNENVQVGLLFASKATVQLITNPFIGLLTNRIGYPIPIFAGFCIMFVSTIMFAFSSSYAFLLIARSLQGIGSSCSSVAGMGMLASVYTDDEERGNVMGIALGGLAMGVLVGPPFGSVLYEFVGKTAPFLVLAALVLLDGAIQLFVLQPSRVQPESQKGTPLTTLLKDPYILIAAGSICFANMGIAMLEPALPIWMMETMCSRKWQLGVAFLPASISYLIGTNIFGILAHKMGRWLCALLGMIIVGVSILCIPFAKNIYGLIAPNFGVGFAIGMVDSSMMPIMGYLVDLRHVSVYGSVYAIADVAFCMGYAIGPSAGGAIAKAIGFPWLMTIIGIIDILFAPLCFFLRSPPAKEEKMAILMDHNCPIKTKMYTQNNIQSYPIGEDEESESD", "details": "Oryctolagus cuniculus; Compound concentration 10.0 uM"}, "[5]": {"target": "Substance-P receptor (Homo sapiens) (UniProt P25103)", "sequence (P25103 whole entry)": "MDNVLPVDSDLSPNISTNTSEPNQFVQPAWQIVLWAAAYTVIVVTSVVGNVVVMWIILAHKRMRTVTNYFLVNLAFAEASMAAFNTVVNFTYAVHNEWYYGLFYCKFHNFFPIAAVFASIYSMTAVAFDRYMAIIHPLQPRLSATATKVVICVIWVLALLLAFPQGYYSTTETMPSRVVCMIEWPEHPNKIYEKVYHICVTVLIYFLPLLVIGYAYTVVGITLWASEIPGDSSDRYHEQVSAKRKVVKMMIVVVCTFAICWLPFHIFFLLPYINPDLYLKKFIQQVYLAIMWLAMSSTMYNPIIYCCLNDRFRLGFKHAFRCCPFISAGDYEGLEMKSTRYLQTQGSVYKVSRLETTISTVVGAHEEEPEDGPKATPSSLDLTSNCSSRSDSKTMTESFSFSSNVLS", "experiment": "Tachykinin NK1 Eurofins-Panlabs radioligand binding assay", "details": "Compound concentration 10.0 uM"}, "[6]": {"target": "Protein kinase C alpha type (Homo sapiens, UniProt P17252)", "experiment": "Inhibition of Protein Serine/Threonine Kinase, PRKCA (PKCα) at 10 µM in the Eurofins-Panlabs enzyme assay (Eurofins_assay_180010)", "parameters": "substrate with concentration Histone, incubation time 10 min, incubation temperature 25 °C"}, "[7]": {"target": "T1, D(4) dopamine receptor (Homo sapiens) (UniProt P21917)", "T1 sequence (whole entry)": "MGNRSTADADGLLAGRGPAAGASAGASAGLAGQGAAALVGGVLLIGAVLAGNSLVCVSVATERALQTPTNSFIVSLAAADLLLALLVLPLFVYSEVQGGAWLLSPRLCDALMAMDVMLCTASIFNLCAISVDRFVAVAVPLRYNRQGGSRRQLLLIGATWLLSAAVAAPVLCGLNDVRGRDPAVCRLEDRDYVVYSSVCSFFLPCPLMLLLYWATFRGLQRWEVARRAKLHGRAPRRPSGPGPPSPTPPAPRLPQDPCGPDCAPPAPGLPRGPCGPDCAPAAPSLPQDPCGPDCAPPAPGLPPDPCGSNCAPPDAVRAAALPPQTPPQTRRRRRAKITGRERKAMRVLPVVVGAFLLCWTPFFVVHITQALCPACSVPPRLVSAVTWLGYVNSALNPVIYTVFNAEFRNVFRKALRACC", "experiment": "Dopamine D4.4 Eurofins-Panlabs radioligand binding assay", "parameters": "ligand concentration 1.2 nM", "details": "Compound concentration 10.0 uM"}, "[8]": {"target": "Glucocorticoid receptor (Homo sapiens) (UniProt P04150)", "sequence (P04150 whole entry)": "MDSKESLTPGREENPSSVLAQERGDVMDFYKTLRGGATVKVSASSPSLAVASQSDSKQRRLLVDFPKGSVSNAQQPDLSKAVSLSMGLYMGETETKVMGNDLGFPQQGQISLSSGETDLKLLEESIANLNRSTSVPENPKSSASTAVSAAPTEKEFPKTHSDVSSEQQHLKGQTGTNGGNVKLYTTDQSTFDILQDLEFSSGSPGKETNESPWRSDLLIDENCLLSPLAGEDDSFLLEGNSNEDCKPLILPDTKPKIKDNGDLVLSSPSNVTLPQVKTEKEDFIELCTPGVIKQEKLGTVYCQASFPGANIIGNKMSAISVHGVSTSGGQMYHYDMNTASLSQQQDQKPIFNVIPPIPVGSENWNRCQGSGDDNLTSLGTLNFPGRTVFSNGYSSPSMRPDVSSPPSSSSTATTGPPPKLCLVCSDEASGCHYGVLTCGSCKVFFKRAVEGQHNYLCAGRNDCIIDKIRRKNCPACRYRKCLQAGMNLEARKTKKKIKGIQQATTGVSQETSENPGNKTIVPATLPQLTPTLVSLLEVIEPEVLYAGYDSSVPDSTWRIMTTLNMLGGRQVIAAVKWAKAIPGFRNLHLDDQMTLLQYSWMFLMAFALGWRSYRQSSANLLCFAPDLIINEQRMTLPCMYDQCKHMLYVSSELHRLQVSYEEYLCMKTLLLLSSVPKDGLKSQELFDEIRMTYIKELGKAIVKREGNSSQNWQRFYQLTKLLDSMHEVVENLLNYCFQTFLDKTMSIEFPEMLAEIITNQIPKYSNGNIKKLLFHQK", "experiment": "Glucocorticoid Eurofins-Panlabs radioligand binding assay", "details": "Compound concentration 10.0 uM"}, "Rattus norvegicus [9]": {"organism": "Rattus norvegicus", "experiment": "Potassium Channel [SKCA] Eurofins-Panlabs radioligand binding assay", "parameters": "ligand concentration 0.005 nM", "details": "Compound concentration 10.0 uM"}, "Rattus norvegicus [10]": {"organism": "Rattus norvegicus", "experiment": "Testosterone Eurofins-Panlabs radioligand binding assay", "parameters": "ligand concentration 1.5 nM", "details": "Compound concentration 10.0 uM"}, "[11]": {"target": "Polyunsaturated fatty acid 5-lipoxygenase (Homo sapiens) (UniProt P09917)", "sequence (P09917 whole entry)": "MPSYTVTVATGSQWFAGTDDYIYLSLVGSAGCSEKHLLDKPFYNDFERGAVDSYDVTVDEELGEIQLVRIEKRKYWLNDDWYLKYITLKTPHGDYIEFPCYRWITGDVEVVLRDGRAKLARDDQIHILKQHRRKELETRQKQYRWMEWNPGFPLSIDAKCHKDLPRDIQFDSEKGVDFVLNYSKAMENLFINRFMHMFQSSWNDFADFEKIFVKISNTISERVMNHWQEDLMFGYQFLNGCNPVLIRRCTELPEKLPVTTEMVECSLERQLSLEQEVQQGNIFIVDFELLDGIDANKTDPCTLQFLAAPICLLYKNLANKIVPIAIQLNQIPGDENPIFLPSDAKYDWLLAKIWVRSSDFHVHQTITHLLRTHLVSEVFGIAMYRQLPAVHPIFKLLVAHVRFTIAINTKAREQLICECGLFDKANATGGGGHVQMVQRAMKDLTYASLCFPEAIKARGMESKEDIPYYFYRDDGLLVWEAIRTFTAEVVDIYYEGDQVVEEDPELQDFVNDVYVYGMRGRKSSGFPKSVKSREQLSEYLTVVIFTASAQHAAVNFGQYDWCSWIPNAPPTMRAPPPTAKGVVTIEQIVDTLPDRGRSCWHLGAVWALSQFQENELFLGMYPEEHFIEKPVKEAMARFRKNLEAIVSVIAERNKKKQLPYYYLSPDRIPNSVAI", "experiment": "Lipoxygenase 5-LO Eurofins-Panlabs enzyme assay", "details": "Compound concentration 10.0 uM"}, "[12]": {"target": "Alpha-1D adrenergic receptor (Homo sapiens) (UniProt P25100)", "details": "Compound concentration 10.0 uM"}, "[13]": {"target": "Beta-1 adrenergic receptor (Homo sapiens) (UniProt P08588)", "sequence (P08588 whole entry, looked up)": "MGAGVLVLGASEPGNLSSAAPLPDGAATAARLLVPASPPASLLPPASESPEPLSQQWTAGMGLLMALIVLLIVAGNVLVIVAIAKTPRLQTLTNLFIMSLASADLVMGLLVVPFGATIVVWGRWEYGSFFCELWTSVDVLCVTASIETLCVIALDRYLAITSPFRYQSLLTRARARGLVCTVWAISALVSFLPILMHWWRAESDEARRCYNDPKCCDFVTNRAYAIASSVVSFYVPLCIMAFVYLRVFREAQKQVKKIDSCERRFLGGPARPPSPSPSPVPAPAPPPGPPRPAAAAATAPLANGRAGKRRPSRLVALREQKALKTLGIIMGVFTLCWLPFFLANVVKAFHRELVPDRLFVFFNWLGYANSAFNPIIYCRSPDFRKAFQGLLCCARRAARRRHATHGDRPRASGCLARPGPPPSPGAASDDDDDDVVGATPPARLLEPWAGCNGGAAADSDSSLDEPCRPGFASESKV", "details": "Compound concentration 10.0 uM"}, "monoamine oxidase MAO-B": {"target": "monoamine oxidase MAO-B (Homo sapiens, UniProt P27338)", "experiment": "Inhibition of Monoamine Oxidase MAO-B at compound concentration of 10.0 uM in the Eurofins-Panlabs enzyme assay (Eurofins_assay_140120)", "parameters": "substrate with concentration 50 uM Kynuramine, incubation time 60 min, incubation temperature 37 C", "details": "recombinant human MAO-B expressed in insect Hi5 cells, probe kynuramine (50 uM), compound concentration 10 uM"}, "Rattus norvegicus [14]": {"organism": "Rattus norvegicus", "experiment": "Inhibition of Glycine, Strychnine-Sensitive at 10 µM in the Eurofins-Panlabs radioligand binding assay (Eurofins_assay_239000)", "details": "Compound concentration 10.0 uM"}, "monoamine oxidase MAO-A": {"target": "monoamine oxidase MAO-A (Homo sapiens, UniProt P21397)", "sequence (P21397 whole entry)": "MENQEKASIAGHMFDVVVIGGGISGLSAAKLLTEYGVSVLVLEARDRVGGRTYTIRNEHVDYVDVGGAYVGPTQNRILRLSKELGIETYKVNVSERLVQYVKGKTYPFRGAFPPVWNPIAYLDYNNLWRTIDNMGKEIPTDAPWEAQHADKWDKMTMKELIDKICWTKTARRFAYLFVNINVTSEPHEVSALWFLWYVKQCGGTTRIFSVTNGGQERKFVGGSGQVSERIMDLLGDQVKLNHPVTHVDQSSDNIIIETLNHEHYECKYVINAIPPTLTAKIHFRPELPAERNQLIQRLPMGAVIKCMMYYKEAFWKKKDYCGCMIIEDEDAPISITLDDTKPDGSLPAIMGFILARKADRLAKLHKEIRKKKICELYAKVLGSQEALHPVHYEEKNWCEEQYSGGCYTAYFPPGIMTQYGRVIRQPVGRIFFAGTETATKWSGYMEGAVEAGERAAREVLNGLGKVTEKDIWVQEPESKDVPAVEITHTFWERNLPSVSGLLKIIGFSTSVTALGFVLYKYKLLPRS", "experiment": "Inhibition of Monoamine Oxidase MAO-A at compound concentration of 10.0 uM in the Eurofins-Panlabs enzyme assay (Eurofins_assay_140010)", "parameters": "substrate with concentration 50 uM Kynuramine, incubation time 60 min, incubation temperature 37 C", "details": "recombinant human MAO-A expressed in insect Hi5 cells, probe kynuramine (50 uM), compound concentration 10 uM"}, "[15]": {"target": "5-hydroxytryptamine receptor 2B (Homo sapiens) (UniProt P41595)", "details": "Compound concentration 10.0 uM"}, "[16]": {"target": "Muscarinic acetylcholine receptor M3 (Homo sapiens) (UniProt P20309)", "details": "Compound concentration 10.0 uM"}, "[17]": {"target": "Glutamate NMDA receptor; GRIN1/GRIN2A (Homo sapiens) (UniProt Q05586+Q12879)", "experiment": "NMDA-NR1a/NR2a Eurofins-Panlabs radioligand binding assay", "assay_type": "protein-complex assay", "details": "Compound concentration 10.0 uM"}, "[18]": {"target": "Prostaglandin E2 receptor EP3 subtype (Homo sapiens) (UniProt P43115)", "sequence (P43115 whole entry)": "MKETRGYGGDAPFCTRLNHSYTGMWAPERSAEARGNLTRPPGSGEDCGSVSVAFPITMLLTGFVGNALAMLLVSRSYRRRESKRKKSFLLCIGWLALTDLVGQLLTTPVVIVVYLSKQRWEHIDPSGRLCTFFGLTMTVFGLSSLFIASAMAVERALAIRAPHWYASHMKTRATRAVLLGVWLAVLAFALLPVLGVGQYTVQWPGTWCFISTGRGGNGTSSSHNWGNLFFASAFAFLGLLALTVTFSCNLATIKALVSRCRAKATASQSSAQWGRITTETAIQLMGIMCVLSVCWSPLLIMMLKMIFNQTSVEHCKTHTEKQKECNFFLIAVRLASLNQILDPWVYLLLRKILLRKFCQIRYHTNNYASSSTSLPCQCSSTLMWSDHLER", "experiment": "Prostanoid EP3 Eurofins-Panlabs radioligand binding assay", "parameters": "ligand concentration 0.5 nM, non-specific ligand with concentration 10 µM Prostaglandin EŽ2 (PGE2), incubation time 60 min, incubation temperature 25 °C", "details": "Compound concentration 10.0 uM"}, "Caspase-1 (Homo sapiens)": {"target": "Caspase-1 (Homo sapiens) (UniProt P29466)", "sequence (P29466 120-297 limits assumed)": "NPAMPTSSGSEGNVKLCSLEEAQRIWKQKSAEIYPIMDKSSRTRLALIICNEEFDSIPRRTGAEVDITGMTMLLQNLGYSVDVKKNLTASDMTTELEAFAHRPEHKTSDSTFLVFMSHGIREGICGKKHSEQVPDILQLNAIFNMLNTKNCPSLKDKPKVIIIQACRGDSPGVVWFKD", "sequence (P29466 317-404 limits assumed)": "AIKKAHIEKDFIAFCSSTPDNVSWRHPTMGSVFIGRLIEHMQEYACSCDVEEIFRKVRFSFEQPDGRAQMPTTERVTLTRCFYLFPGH", "experiment": "Inhibition of Peptidase, CASP1 (Caspase 1) at 10 µM in the Eurofins-Panlabs enzyme assay (Eurofins_assay_163000)", "details": "Compound concentration 10.0 uM"}, "[19]": {"target": "Muscarinic acetylcholine receptor M2 (Homo sapiens) (UniProt P08172)", "details": "Compound concentration 10.0 uM", "remark": "listed apart in the source"}, "[20]": {"target": "Phosphodiesterase PDE1 (Bos taurus) (UniProt Q01061+P14100+A0A3Q1MCV4)", "experiment": "Phosphodiesterase PDE1 Eurofins-Panlabs enzyme assay", "assay_type": "protein assay", "parameters": "substrate with concentration [3H] cAMP + cAMP, incubation time 20 min, incubation temperature 25 °C", "details": "Compound concentration 100.0 uM"}, "[21]": {"target": "Kappa-type opioid receptor (Homo sapiens) (UniProt P41145)", "details": "Compound concentration 10.0 uM"}, "[22]": {"target": "GABA-A receptor; alpha-5/beta-3/gamma-2 (Homo sapiens) (UniProt P18507+P28472+P31644)", "experiment": "GABA-alpha5beta3gamma2 (Muscimol binding) Eurofins-Panlabs radioligand binding assay", "assay_type": "protein-complex assay", "parameters": "ligand concentration 8 nM", "details": "Compound concentration 10.0 uM"}, "[23]": {"target": "T2, Muscarinic acetylcholine receptor M4 (Homo sapiens) (UniProt P08173)", "T2 sequence (whole entry)": "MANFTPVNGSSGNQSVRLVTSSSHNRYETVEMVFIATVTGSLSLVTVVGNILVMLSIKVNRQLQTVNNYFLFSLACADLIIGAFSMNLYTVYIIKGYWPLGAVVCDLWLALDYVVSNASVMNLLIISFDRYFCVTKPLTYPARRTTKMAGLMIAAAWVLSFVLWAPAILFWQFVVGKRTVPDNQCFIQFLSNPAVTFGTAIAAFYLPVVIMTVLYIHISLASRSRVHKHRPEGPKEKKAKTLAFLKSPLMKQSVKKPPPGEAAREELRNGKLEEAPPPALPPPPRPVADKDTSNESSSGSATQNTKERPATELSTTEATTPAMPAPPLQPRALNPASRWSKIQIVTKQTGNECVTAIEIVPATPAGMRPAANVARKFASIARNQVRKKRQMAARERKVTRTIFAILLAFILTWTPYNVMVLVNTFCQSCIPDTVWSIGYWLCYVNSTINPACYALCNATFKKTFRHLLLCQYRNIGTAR", "details": "Compound concentration 10.0 uM"}, "[24]": {"target": "Oxytocin receptor (Homo sapiens) (UniProt P30559)", "experiment": "Oxytocin Eurofins-Panlabs radioligand binding assay", "details": "Compound concentration 10.0 uM"}, "[25]": {"target": "Adenosine receptor A2a (Homo sapiens) (UniProt P29274)", "sequence (P29274 whole entry)": "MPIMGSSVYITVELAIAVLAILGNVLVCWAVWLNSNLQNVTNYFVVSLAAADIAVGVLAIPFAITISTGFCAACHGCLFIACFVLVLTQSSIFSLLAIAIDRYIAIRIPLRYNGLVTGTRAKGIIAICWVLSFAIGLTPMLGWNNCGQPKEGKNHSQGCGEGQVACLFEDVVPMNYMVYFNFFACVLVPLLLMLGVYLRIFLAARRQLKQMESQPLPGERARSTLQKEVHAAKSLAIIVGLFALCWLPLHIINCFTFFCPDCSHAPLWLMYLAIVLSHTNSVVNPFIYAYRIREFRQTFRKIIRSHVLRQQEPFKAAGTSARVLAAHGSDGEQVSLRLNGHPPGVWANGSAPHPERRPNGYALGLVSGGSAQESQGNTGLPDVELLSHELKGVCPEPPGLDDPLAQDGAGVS", "details": "Compound concentration 10.0 uM"}, "[26]": {"target": "Delta-type opioid receptor (Homo sapiens) (UniProt P41143)", "details": "Compound concentration 10.0 uM"}}}
{"smiles": "N#CC1(c2ccccn2)CCN(Cc2cc(C(=O)O)c(=O)n3ccccc23)CC1", "note": "[MSD-M1PAM]", "values": [{"measurement": "inhibition", "setting": "[1]", "value": 2, "unit": "%"}, {"measurement": "inhibition", "setting": "[2]", "value": -8.07, "unit": "%"}, {"measurement": "inhibition", "setting": "[3]", "value": -3, "unit": "%"}, {"measurement": "inhibition", "setting": "[4]", "value": 9, "unit": "%"}, {"measurement": "inhibition", "setting": "[5]", "value": 0, "unit": "%"}, {"measurement": "IC50", "setting": "[6]", "value": 91.5, "unit": "µM"}, {"measurement": "inhibition", "setting": "[6]; Compound concentration 0.1 uM", "value": -9, "unit": "%"}, {"measurement": "inhibition", "setting": "[6]; Compound concentration 1.0 uM", "value": -3, "unit": "%"}, {"measurement": "inhibition", "setting": "[6]; Compound concentration 10.0 uM", "value": 11, "unit": "%"}, {"measurement": "inhibition", "setting": "[6]; Compound concentration 100.0 uM", "value": 52, "unit": "%"}, {"measurement": "inhibition", "setting": "[7]", "value": 3, "unit": "%"}, {"measurement": "inhibition", "setting": "[8]", "value": 4, "unit": "%"}, {"measurement": "inhibition", "setting": "Rattus norvegicus [9]", "value": -10, "unit": "%"}, {"measurement": "inhibition", "setting": "Rattus norvegicus [10]", "value": -3, "unit": "%"}, {"measurement": "inhibition", "setting": "[11]", "value": -7, "unit": "%"}, {"measurement": "inhibition", "setting": "[12]", "value": -5.73, "unit": "%"}, {"measurement": "inhibition", "setting": "[13]", "value": 2, "unit": "%"}, {"measurement": "inhibition at 60 min, 10 µM", "setting": "monoamine oxidase MAO-B", "value": "-5% (not active)"}, {"measurement": "inhibition", "setting": "Rattus norvegicus [14]", "value": 33, "unit": "%"}, {"measurement": "inhibition at 60 min, 10 µM", "setting": "monoamine oxidase MAO-A", "value": "12% (not active)"}, {"measurement": "inhibition", "setting": "[15]", "value": -2, "unit": "%"}, {"measurement": "inhibition", "setting": "[16]", "value": -6.58, "unit": "%"}, {"measurement": "inhibition", "setting": "[17]", "value": -6, "unit": "%"}, {"measurement": "inhibition", "setting": "[18]", "value": 3, "unit": "%"}, {"measurement": "inhibition", "setting": "Caspase-1 (Homo sapiens)", "value": 7, "unit": "%"}, {"measurement": "inhibition", "setting": "[19]", "value": 2, "unit": "%"}, {"measurement": "inhibition", "setting": "[20]", "value": 28, "unit": "%"}, {"measurement": "inhibition", "setting": "[21]", "value": 2, "unit": "%"}, {"measurement": "inhibition", "setting": "[22]", "value": 11, "unit": "%"}, {"measurement": "inhibition", "setting": "[23]", "value": 0, "unit": "%"}, {"measurement": "inhibition", "setting": "[24]", "value": -5, "unit": "%"}, {"measurement": "inhibition", "setting": "[25]", "value": 6, "unit": "%"}]}
{"smiles": "N#CC1(c2ccccn2)CCN(Cc2cc(C(=O)N3CCCC3)c(=O)n3ccccc23)CC1", "values": [{"measurement": "inhibition", "setting": "[26]", "value": -0.84, "unit": "%"}]}
